Measured values: US11332438B2, “Creatine prodrugs, compositions and methods of use thereof” (Ultragenyx Pharmaceutical Inc., priority 2017, dated 2022)
Counter-ions that a name gives are not always drawn.

Assays:
[1] = Chemical stability in phosphate buffered saline (PBS); format: physicochemical; settings: 50 μM prodrug
Method: (§1) Chemical stability of creatine prodrugs in phosphate buffered saline (PBS), simulated intestinal fluid (SIF) without pancreatin, simulated gastric fluid (SGF) without pepsin were determined by LC-UV, LC-CAD, LC-UV-CAD or LC-MS/MS as appropriate. Creatine prodrugs of the present disclosure (50 μM) were incubated at 37° C. according to described protocols and prodrug levels were compared between t=0, t=15, t=60, and t=120 mins by peak area ratio to determine the percentage remained at t=120 mins (2 h).
(§2) Protocol for PBS, SIF and SGF stability for screening:
(§3) Prodrugs (50 μM) were incubated in PBS, FaSSIF (Biorelevant) or FaSSGF (Biorelevant) at 37° C.

[2] = Chemical stability in simulated gastric fluid (SGF) without pepsin; format: physicochemical; settings: 50 μM prodrug
Method: as §1, §2, §3

[3] = Prodrug cleavage in human brain homogenates (HBH): d3-Cr release and d3-Crn cyclization; format: in vitro ADME; settings: 200 μM prodrug, 3 h, % of nominal input
Method: For assessment of the ability of prodrugs to release creatine, and to release creatine preferentially to unwanted cyclization to creatinine, d3-labeled (deuterium labeled methyl group) prodrugs are incubated with brain homogenates (e.g., mouse, human) specially prepared to preserve FAAH activity or with rFAAH for direct cleavage study. The use of d3-labelled prodrugs is essential in order to distinguish prodrug-derived creatine (d3-creatine) from high concentrations of endogenous (non-labeled) creatine. […] Prodrugs are tested at final concentrations of 20 μM and 200 μM. Approximately 3-4 mg of homogenate is used for each reaction. Co-factor (NADPH) is included at a final concentration of 1 mM. FAAH activity is confirmed by conversion of 7-amino-4-methyl Coumarin-Arachidonamide to 7-amino-4-methyl Coumarin by fluorescent assay. Negative controls include incubations without brain homogenate/rFAAH (but with NADPH) or 65° C. heat inactivated brain homogenate/rFAAH to assess non-enzymatic prodrug cleavage under the conditions of the assay and FAAH inhibitor […] at the concentration of 1 μM. Prodrug incubations are prepared by addition of 8 μL of prodrug stock solution (500 or 5000 μM in DMSO or DMSO/methanol) to assay buffered, followed by addition of brain homogenate/rFAAH. […] The samples are centrifuged at 15890×g for 10 minutes at 4° C., followed by transfer of the supernatants for storage at −20° C. pending LC-MS/MS analysis. Sample supernatants are analyzed by LC-MS/MS for determination of d3-prodrug, d3-creatine and d3-creatinine levels.
Deuterated creatine prodrugs were tested in 3 different in vitro assays to assess d3-creatine (d3-Cr) release and cyclization to form d3-creatinine (d3-Crn). These assays were 1) direct cleavage with recombinant human FAAH enzyme (rFAAH), 2) cleavage in mouse brain homogenates (MBH), and 3) human brain homogenates (HBH).
Creatine prodrug cleavage efficiency was determined by percentage of net d3-Cr release in μM (positive reaction subtracted from negative control of no brain homogenate/rFAAH or inactivated brain homogenate/rFAAH) over nominal input concentration of 200 μM prodrug at 3 h. Propensity for creatinine cyclization was determined by percentage of d3-Crn generated in μM in positive reaction over nominal input concentration of 200 μM prodrug at 3 h.

[4] = system: Phenocell CrT deficient neurons (iPSC-derived human neurons); assay: Creatine prodrug uptake and d3-creatine release in Phenocell CrT deficient neurons (Table 4B); format: cell-based; settings: 2 hours
Method: Human neurons were obtained by differentiation of iPSC-derived neural stem cells for 14 days. The iPSCs were obtained from Phenocell Corporation. Neurons were cultured and differentiated to Day 10 and then frozen in liquid nitrogen. Neurons were thawed and replated at 1×10^6 per well of viable cells on poly-ornithine/laminin coated plates in 2 ml medium per well. Differentiation in complete Neurol medium with 2 ng/ml FGF2 was carried out for 4 additional days with a complete medium change (90% of medium) on Day 12. Activin A (20 ng/ml final conc.) was spiked into the cultures on Day 11 and Day 13. […] In parallel, compounds were incubated in medium alone to assess chemical stability of parent prodrug and metabolites. At the end of the 2 hour incubation, supernatants were collected and frozen at −80 C. Neurons in 6 well plates were washed gently 3× with HBSS and frozen at −80° C. Cell lysates were obtained by addition of 130 μl/well 10 mM Tris pH 7.4 with complete Mini protease inhibitors and scraping of wells. Plates were kept on ice during processing. Lysates were homogenized by hand briefly with a green pestle in 1.5 ml centrifuge tubes and then vortexed at high speed for 5 seconds. Lysates were centrifuged at 13,000 g, 10 minutes, 4 C and supernatants (cytosol fraction) were transferred in a new tube. A crash solution constituted of 80% acetonitrile and 20% water with bucetin, d5-Cr (internal standard) was added at 4:1 volume to volume to 50 ul of all samples for a total volume of 250 μL. Then plate was spun at 4000 rpm, 10 minutes, […] Samples were transferred to a new plate and frozen at −80 C prior to analysis by LC-MS/MS (Table 4B).

[5] = Plasma stability, human plasma; format: in vitro ADME; settings: 37 °C, read-out: Plasma Stability Human t1/2
Method: (§4) The stabilities of creatine prodrugs can be evaluated in one or more in vitro systems using a variety of preparations following methods known in the art. Experimental conditions useful for the in vitro studies are described in Table 1. Prodrug is added to each preparation in triplicate. […]
(§5) Protocol for plasma stability for early screen macrocycles (Method A):
(§6) Frozen plasma was thawed by placing at 37° C. quickly and centrifuged at 3,000 rpm for 8 minutes to remove clots. Then the supernatant was pipetted and pooled as the plasma to be used in the experiment. The plasma was placed on ice until used. The test compounds and reference compounds spiking solution was prepared as a 2.5 mM test compounds spiking solution A: Add 20 μL of 10 mM test compounds stock solution to 60 μL DMSO. 0.1 mM Spiking solution B was prepared: Add 40 μL of spiking solution A to 960 μL of […] Sodium phosphate buffer with 0.5% BSA. […] For 0-min, 400 μL of ACN containing IS was added to the wells of 0-min plate and then 90 μL of plasma was added. […] 50 μL of the supernatant was transferred from each well into a 96-well sample plate containing 120 μL of ultra pure water (Millipore, ZMQS50F01) and analyzed by LC/MS.
(§7) Protocol for plasma stability (Method B):
(§8) The frozen plasma was thawed in a 37° C. water bath and then, if needed, adjusted to pH=7.4 then preheated in a 37° C. incubator. The test article was dissolved in 10% DMSO/water and spiked into plasma pre-plated into 96 well plates at a final concentration of 1 μM. Discrete incubations were performed at 37° C. and included 5 time points: t=0, 2, 5, 15, and 30 min. Samples were then crashed with 4× volume, ice cold 20% water/80% acetonitrile and spun at 4000 g for 10 mins. The supernatant was dried down and reconstituted with water and analyzed by LC-MS/MS. The half life in minute was calculated.

[6] = Plasma stability, mouse plasma; format: in vitro ADME; settings: 37 °C, read-out: Plasma Stability Mouse t1/2
Method: as §4, §5, §6, §7, §8

[7] = Liver microsome stability, human; format: in vitro ADME; settings: liver microsomes, pH 7.4, Table 2B, read-out: Microsome Stability Human t1/2
Method: as §4
(§9) Protocol for Microsomal Stability:
(§10) For reference compound, a 500 μM spiking solution was prepared: add 10 μL of 10 mM DMSO stock solution into 190 μL ACN. […] For test compound, a 5 mM spiking solution was prepared: add 10 μL of 10 mM DMSO stock solution into 10 μL ACN. […] NADPH stock solution (6 mM) was prepared by dissolving NADPH into buffer 0.1 M Potassium Phosphate buffer, 1.0 mM EDTA, pH 7.4. […] For 0-min, 135 μL of ACN containing IS was added to the wells of 0-min plate and then 15 μL of NADPH stock solution (6 mM) was added. 15 μL of NADPH stock solution (6 mM) was added to the samples designated as 0-, 5-, 10-, 20-, 30-min, 60-min; 15 μL of buffer 0.1 M Potassium Phosphate buffer, 1.0 mM EDTA, pH 7.4, was added to the samples designated as 60-min without NADPH. At 5-min, 10-min, 20-min, and 30-min, 60-min 135 μL of ACN containing IS was added to the wells of corresponding plates, respectively, to stop the reaction. […] 50 μL of the supernatant from each well was transferred into a 96-well sample plate containing 50 μL of ultra pure water (Millipore, ZMQS50FOI) and analyzed by LC/MS.

[8] = Liver microsome stability, mouse; format: in vitro ADME; settings: liver microsomes, pH 7.4, Table 2B, read-out: Microsome Stability Mouse t1/2
Method: as §4, §9, §10

Cl.[2H]C([2H])([2H])N(CC(=O)OCC(C)(C)C)C(=N)NC(=O)CCCCCCCCCC [Compound 39]
Chemical Stability PBS % T0 at 2 hours at 37 °C. ([1]; Table 2A): 62%
Chemical Stability SGF, no enzyme % T0 at 2 hours at 37 °C. ([2]; Table 2A): 103%
Prodrug Cleavage Human BH d3-Crn release [3]: 166.5%
Prodrug Cleavage Human BH net d3-Cr release ([3]; negative control subtracted): 6.4%

Cl.[2H]C([2H])([2H])N(CC(=O)OC(C)C(C)(C)C)C(=N)NC(=O)CCCCCCCCCC (stereo not drawn) [Compound 52]
Prodrug concentration in the cell cytosol ([4]; Study No. 1, 10 μM): 3.47 nmoles/mg protein
d3-Creatine concentration in the cell cytosol ([4]; Study No. 1, 10 μM): 0.65 nmoles/mg protein
d3-Creatinine concentration in the cell cytosol ([4]; Study No. 1, 10 μM): 0.84 nmoles/mg protein
Prodrug concentration in the cell cytosol ([4]; Study No. 1, 50 μM): 12 nmoles/mg protein
d3-Creatine concentration in the cell cytosol ([4]; Study No. 1, 50 μM): 2.9 nmoles/mg protein
d3-Creatinine concentration in the cell cytosol ([4]; Study No. 1, 50 μM): 29.6 nmoles/mg protein
Prodrug concentration in the cell cytosol ([4]; Study No. 2, 50 μM): 9.5 nmoles/mg protein
d3-Creatine concentration in the cell cytosol ([4]; Study No. 2, 50 μM): 0.8 nmoles/mg protein
d3-Creatinine concentration in the cell cytosol ([4]; Study No. 2, 50 μM): 10.6 nmoles/mg protein
Prodrug concentration in the cell cytosol ([4]; Study No. 3, 50 μM): 0.51 nmoles/mg protein
d3-Creatine concentration in the cell cytosol ([4]; Study No. 3, 50 μM): 2.84 nmoles/mg protein
d3-Creatinine concentration in the cell cytosol ([4]; Study No. 3, 50 μM): 8.82 nmoles/mg protein
Chemical Stability PBS % T0 at 2 hours at 37 °C. ([1]; Table 2B): 98%
Chemical Stability SGF, no enzyme % T0 at 2 hours at 37 °C. ([2]; Table 2B): 98%

[2H]C([2H])([2H])N(CC(=O)O)C(=N)NC(=O)CCCCCCCCCCO [Compound 54]
Prodrug concentration in the cell cytosol ([4]; Study No. 1, 10 μM): BLOQ
d3-Creatine concentration in the cell cytosol ([4]; Study No. 1, 10 μM): BLOQ
d3-Creatinine concentration in the cell cytosol ([4]; Study No. 1, 10 μM): BLOQ
Prodrug concentration in the cell cytosol ([4]; Study No. 1, 50 μM): BLOQ
d3-Creatine concentration in the cell cytosol ([4]; Study No. 1, 50 μM): BLOQ
d3-Creatinine concentration in the cell cytosol ([4]; Study No. 1, 50 μM): BLOQ
half-life ([5]; Table 2B): > 3 h
Chemical Stability PBS % T0 at 2 hours at 37 °C. ([1]; Table 2B): 103%
half-life ([6]; Table 2B): > 3 h
half-life at 10 μM [7]: > 1.5 h
Chemical Stability SGF, no enzyme % T0 at 2 hours at 37 °C. ([2]; Table 2B): 102%
half-life at 10 μM [8]: > 1.5 h

[2H]C([2H])([2H])N1CC(=O)O[C@H](C)CCCCCCCCCC(=O)NC1=N [Compound Q, (R)-5-imino-4,17-dimethyl-1-oxa-4,6-diazacycloheptadecane-2,7-dione Hydrochloride]
Prodrug concentration in the cell cytosol ([4]; Study No. 2, 100 μM): BLOQ
Prodrug concentration in the cell cytosol ([4]; Study No. 2, 500 μM): BLOQ
half-life ([5]; Table 2C, macrocycles): 0.167 h
half-life ([6]; Table 2C, macrocycles): 0.0217 h

[2H]C([2H])([2H])N1CC(=O)OC(C)(C)CCCCCCCCCC(=O)NC1=N [Compound U, 5-imino-4-trideuteriomethyl-17,17-dimethyl-1-oxa-4,6-diazacycloheptadecane-2,7-dione]
Prodrug concentration in the cell cytosol ([4]; Study No. 3, 50 μM): 0.48 nmoles/mg protein
d3-Creatine concentration in the cell cytosol ([4]; Study No. 3, 50 μM): BLOQ
half-life ([5]; Table 2C, macrocycles): 1.2 h
half-life ([6]; Table 2C, macrocycles): 1.17 h

[2H]C([2H])([2H])N1CC(=O)OC(CCC)CCCCCCCC(=O)NC1=N (stereo not drawn) [Compound W, 5-imino-4-trideuteriomethyl-15-propyl-1-oxa-4,6-diazacyclopentadecane-2,7-dione]
Prodrug concentration in the cell cytosol ([4]; Study No. 3, 50 μM): 0.44 nmoles/mg protein
d3-Creatine concentration in the cell cytosol ([4]; Study No. 3, 50 μM): BLOQ

[2H]C([2H])([2H])N1CC(=O)OC(C)(C)CCCCCCCC(=O)NC1=N [Compound X, 5-imino-15,15-dimethyl-4-(methyl-d3)-1-oxa-4,6-diazacyclopentadecane-2,7-dione]
Prodrug concentration in the cell cytosol ([4]; Study No. 3, 50 μM): BLOQ
d3-Creatine concentration in the cell cytosol ([4]; Study No. 3, 50 μM): BLOQ
